One test deals with T1, E-selectin (Homo sapiens, UniProt P16581).
T1 sequence (P16581 whole entry): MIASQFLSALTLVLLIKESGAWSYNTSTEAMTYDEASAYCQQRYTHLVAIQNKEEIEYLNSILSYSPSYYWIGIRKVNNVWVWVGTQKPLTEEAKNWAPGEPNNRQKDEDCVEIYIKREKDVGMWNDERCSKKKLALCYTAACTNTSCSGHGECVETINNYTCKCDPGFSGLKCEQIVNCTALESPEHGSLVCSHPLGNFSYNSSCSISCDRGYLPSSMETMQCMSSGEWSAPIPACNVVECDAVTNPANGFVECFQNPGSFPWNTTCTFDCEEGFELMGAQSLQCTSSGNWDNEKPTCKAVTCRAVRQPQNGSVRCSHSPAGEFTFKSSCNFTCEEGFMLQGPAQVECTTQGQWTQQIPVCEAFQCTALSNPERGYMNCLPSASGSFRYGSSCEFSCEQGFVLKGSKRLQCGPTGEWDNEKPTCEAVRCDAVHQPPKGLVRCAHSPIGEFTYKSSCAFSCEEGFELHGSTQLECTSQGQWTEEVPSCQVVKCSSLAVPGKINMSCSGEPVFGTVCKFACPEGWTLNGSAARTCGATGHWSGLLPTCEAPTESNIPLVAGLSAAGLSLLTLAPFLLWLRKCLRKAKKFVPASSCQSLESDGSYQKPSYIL
As to the kind of experiment: Tested in vitro to inhibit cell adhesion of HL-60 cells to recombinant human soluble Selectin E. Format: cell-based.

The next test has as its system Mus musculus. As to the kind of experiment: Tested in vivo for the inhibition of LTA -induced neutrophil accumulation into pleural cavity of mice at a dose of 30 mg/kg. Type of test: functional.

The text below walks through data of ChEMBL document CHEMBL1129914, “Synthesis and inhibitory effect of a sialyl lewis X-acrylamide homopolymer at preventing cell adhesion” (Bioorg Med Chem Lett, 1997).

On to `CCO[C@@H]1O[C@@H](CO)[C@@H](O[C@@H]2O[C@@H](CO)[C@H](O)[C@H](O[C@]3(C(=O)O)C[C@@H](O)[C@@H](NC(C)=O)[C@H]([C@H](O)[C@H](O)CO)O3)[C@@H]2O)[C@H](O[C@@H]2O[C@@H](C)[C@@H](O)[C@H](O)[C@@H]2O)[C@@H]1NC(C)=O`, for which, at E-selectin, the IC50 was determined as 1500 µg/mL. Also, the inhibition in vivo at 30 mg/kg in the test with Mus musculus came to 38%.

As for `C=CC(=O)NCCCCCCO[C@@H]1O[C@@H](CO)[C@@H](O[C@@H]2O[C@@H](CO)[C@H](O)[C@H](O[C@]3(C(=O)[O-])C[C@@H](O)[C@@H](NC(C)=O)[C@H]([C@H](O)[C@H](O)CO)O3)[C@@H]2O)[C@H](O[C@@H]2O[C@@H](C)[C@@H](O)[C@H](O)[C@@H]2O)[C@@H]1NC(=O)c1ccc2ccccc2c1.[Na+]`, the IC50 at E-selectin came out at 100 µg/mL. For the same compound, in the test on Mus musculus, the inhibition in vivo at 30 mg/kg came to 35%.

As usually defined, the IC50 is the concentration that inhibits the measured activity by half. One may read the inhibition in vivo as the percentage by which the read-out fell short of the control.
